Species: Rattus norvegicus
Test: Open TG-GATES - Regimen: Single
Type: toxicity, organism-based, Sprague-Dawley
Parameters: regimen Single, gender Male, age 6 weeks
Conditions: in vivo, po, 5 mg/kg, route gavage, dose level Middle; for APTT / Bas / Eos / Fbg / Hb / Ht / Lym / MCH / MCHC / MCV / Mono / Neu / PT / Plat / RBC / Ret / WBC: tissue Blood; for KIDNEY_L / KIDNEY_R / KIDNEY_TOTAL: tissue Kidney; for ALP / ALT / AST / CRE / Cl / DBIL / GLC / IP / K / LDH / Na / PL / RALB / TBIL / TC / TG / TP / gamma-GTP: tissue Plasma

COc1cc2c(c(OC)c1OC)-c1ccc(OC)c(=O)cc1[C@@H](NC(C)=O)CC2 [COLCHICINE]
APTT (3 h): 16.4 s | Bas (3 h): 0% | Eos (3 h): 0.8% | Fbg (3 h): 217.6 mg/dL | Hb (3 h): 13.6 g/dL | Ht (3 h): 41.3% | Lym (3 h): 83.2% | MCH (3 h): 21.9 pg | MCHC (3 h): 32.8% | MCV (3 h): 66.5 fL | Mono (3 h): 7.2% | Neu (3 h): 9.2% | PT (3 h): 12.1 s | Plat (3 h): 112.7 x10_4/uL | RBC (3 h): 622 x10_4/ul | Ret (3 h): 9.5% | WBC (3 h): 111.5 x10_2/uL | KIDNEY_L (3 h): 0.9 g | KIDNEY_R (3 h): 1 g | KIDNEY_TOTAL (3 h): 1.9 g | ALP (3 h): 915.6 IU/L | ALT (3 h): 52.6 IU/L | AST (3 h): 119.2 IU/L | CRE (3 h): 0.4 mg/dL | Cl (3 h): 103.4 meq/L | DBIL (3 h): 0.046 mg/dL | GLC (3 h): 193.4 mg/dL | IP (3 h): 9.1 mg/dL | K (3 h): 4.5 meq/L | LDH (3 h): 248 IU/L | Na (3 h): 139 meq/L | PL (3 h): 133.8 mg/dL | RALB (3 h): 3.7 g/dL | TBIL (3 h): 0.4 mg/dL | TC (3 h): 79.6 mg/dL | TG (3 h): 53 mg/dL | TP (3 h): 5.5 g/dL | gamma-GTP (3 h): 1 IU/L | TERMINAL_BW (6 h): 218.4 g | APTT (6 h): 17.4 s | Bas (6 h): 0% | Eos (6 h): 0.6% | Fbg (6 h): 205.2 mg/dL | Hb (6 h): 13.5 g/dL | Ht (6 h): 41.4% | Lym (6 h): 72.2% | MCH (6 h): 21 pg | MCHC (6 h): 32.6% | MCV (6 h): 64.3 fL | Mono (6 h): 10.8% | Neu (6 h): 16.2% | PT (6 h): 12.5 s | Plat (6 h): 107.8 x10_4/uL | RBC (6 h): 644.8 x10_4/ul | Ret (6 h): 8.9% | WBC (6 h): 105.2 x10_2/uL | KIDNEY_L (6 h): 1 g | KIDNEY_R (6 h): 1 g | KIDNEY_TOTAL (6 h): 1.9 g | ALP (6 h): 1038.4 IU/L | ALT (6 h): 103.8 IU/L | AST (6 h): 216.8 IU/L | CRE (6 h): 0.5 mg/dL | Cl (6 h): 103.2 meq/L | DBIL (6 h): 0.048 mg/dL | GLC (6 h): 180.2 mg/dL | IP (6 h): 9.4 mg/dL | K (6 h): 4.6 meq/L | LDH (6 h): 340.6 IU/L | Na (6 h): 139.6 meq/L | PL (6 h): 118.4 mg/dL | RALB (6 h): 3.7 g/dL | TBIL (6 h): 0.4 mg/dL | TC (6 h): 64 mg/dL | TG (6 h): 35.2 mg/dL | TP (6 h): 5.5 g/dL | gamma-GTP (6 h): 1 IU/L | TERMINAL_BW (9 h): 217.1 g | APTT (9 h): 16.7 s | Bas (9 h): 0% | Eos (9 h): 1% | Fbg (9 h): 207.8 mg/dL | Hb (9 h): 13.6 g/dL | Ht (9 h): 41.3% | Lym (9 h): 67.4% | MCH (9 h): 21.5 pg | MCHC (9 h): 32.9% | MCV (9 h): 65.4 fL | Mono (9 h): 12% | Neu (9 h): 20.4% | PT (9 h): 12.6 s | Plat (9 h): 108.3 x10_4/uL | RBC (9 h): 631.6 x10_4/ul | Ret (9 h): 9.1% | WBC (9 h): 93.9 x10_2/uL | KIDNEY_L (9 h): 1 g | KIDNEY_R (9 h): 1 g | KIDNEY_TOTAL (9 h): 2 g | ALP (9 h): 1040.6 IU/L | ALT (9 h): 165.4 IU/L | AST (9 h): 290.6 IU/L | CRE (9 h): 0.5 mg/dL | Cl (9 h): 103.4 meq/L | DBIL (9 h): 0.098 mg/dL | GLC (9 h): 191.6 mg/dL | IP (9 h): 8.8 mg/dL | K (9 h): 5.1 meq/L | LDH (9 h): 265.2 IU/L | Na (9 h): 137 meq/L | PL (9 h): 137.6 mg/dL | RALB (9 h): 3.7 g/dL | TBIL (9 h): 0.4 mg/dL | TC (9 h): 79.2 mg/dL | TG (9 h): 32 mg/dL | TP (9 h): 5.4 g/dL | gamma-GTP (9 h): 2.2 IU/L | TERMINAL_BW (24 h): 226.2 g | APTT (24 h): 16.3 s | Bas (24 h): 0% | Eos (24 h): 1% | Fbg (24 h): 208.6 mg/dL | Hb (24 h): 13.6 g/dL | Ht (24 h): 41.5% | Lym (24 h): 78.4% | MCH (24 h): 21.6 pg | MCHC (24 h): 32.8% | MCV (24 h): 65.8 fL | Mono (24 h): 9.8% | Neu (24 h): 10.8% | PT (24 h): 11.2 s | Plat (24 h): 117.7 x10_4/uL | RBC (24 h): 631.6 x10_4/ul | Ret (24 h): 7.6% | WBC (24 h): 120.4 x10_2/uL | KIDNEY_L (24 h): 1 g | KIDNEY_R (24 h): 1 g | KIDNEY_TOTAL (24 h): 2 g | ALP (24 h): 975.4 IU/L | ALT (24 h): 65.4 IU/L | AST (24 h): 110.6 IU/L | CRE (24 h): 0.6 mg/dL | Cl (24 h): 104 meq/L | DBIL (24 h): 0.064 mg/dL | GLC (24 h): 191.8 mg/dL | IP (24 h): 5.3 mg/dL | K (24 h): 4.7 meq/L | LDH (24 h): 116 IU/L | Na (24 h): 138 meq/L | PL (24 h): 125.4 mg/dL | RALB (24 h): 3.7 g/dL | TBIL (24 h): 0.4 mg/dL | TC (24 h): 71.2 mg/dL | TG (24 h): 58 mg/dL | TP (24 h): 5.6 g/dL | gamma-GTP (24 h): 1.2 IU/L
